Where two headings read alike, the source gives them in different places.
Test system: hypercholesterolemia golden hamster model
Assay: In vivo pharmacodynamic screening in hypercholesterolemia model of golden hamster (plasma TC and LDL-C)
Conditions: for inhibition in vivo at 10 mg/kg / inhibition in vivo at 1 mg/kg / inhibition in vivo at 3 mg/kg / inhibition in vivo at 5 mg/kg / inhibition in vivo at 0.4 mg/kg / inhibition in vivo at 2 mg/kg: Mesocricetus auratus, po, 168 h; for LDL-C after administration / TC after administration / LDL after administration: 1 week, plasma; for reduction of plasma TC and LDL-C levels (in words): significant statistical difference; for effect of lowering cholesterol (screening result in words): in vivo pharmacodynamic screening test, Ezetimibe as positive control; for efficacy compared with the positive control (in words): positive control Ezetimibe
Method: 1. Establishment of Hypercholesterolemia Model of Golden Hamster:
The animals were subjected to acclimation feeding for 1 week with free feeding and drinking under a lighting condition of 10 h/14 h. On Day 8, the animals were raised with high fat feed (consisting of 0.5% cholesterol, 20% palm oil, 79.5% basal feed) for 1 week. Then, each animal was anesthetized by ether. After weighing, 0.5 ml blood was obtained from orbital vein, anticoagulated with heparin and centrifuged at 5000 rpm for 10 min. The plasma was collected and the levels of plasma TC (total cholesterol) and LDL-C (low density lipoprotein cholesterol) were determined by automatic biochemical analyzer. Animals with plasma TC of 9-15 mmol/L were selected as model animals (refer to the following reference for the method of animal modeling: Burrier, R. E., Smith, A. A., Mcgregor, D. G, Hoos, L. M., Zilli, D. L., Davis, H. R. The effect of acyl CoA: cholesterol acyltransferase inhibition on the uptake, esterification and secretion of cholesterol by the hamster small intestine. J. Pharm. Exp. Ther., 1995, 272, 156-163).
The animals were grouped according to TC and LDL-C levels and weight with 6 animals per group. Ezetimibe was used as positive control. The animals were intragastrically administered at a volume of 5 ml/kg for 1 week. Each animal was anesthetized by ether. After weighing, 0.5 ml blood was taken from orbital vein, anticoagulated with heparin, and centrifuged at 5000 rpm for 10 min. The plasma was collected and plasma TC (total cholesterol) and LDL-C (low density lipoprotein cholesterol) levels were determined by automatic biochemical analyzer to evaluate the efficacy of the compounds.

[1] = Table 12, read-out: Reducing LDL-C %
[2] = Table 12, read-out: Reducing TC %
[3] = Table 11, 10 mg/kg intragastric
[4] = Table 11, baseline of group dosed 10 mg/kg
[5] = golden hamster hypercholesterolemic model
[6] = Table 8, read-out: Reducing LDL-C %
[7] = Table 8, read-out: Reducing TC %
[8] = Table 10, read-out: Reducing LDL-C %
[9] = Table 10, read-out: Reducing TC %
[10] = Table 6, read-out: Reducing LDL-C %
[11] = Table 6, read-out: Reducing TC %
[12] = Table 2, read-out: Reducing LDL-C %
[13] = Table 2, read-out: Reducing TC %
[14] = Table 1, 0.4 mg/kg intragastric

COc1ccc([C@@H]2[C@@H](C/C=C(\COC(C)=O)c3ccc(F)cc3)C(=O)N2c2ccc(F)cc2)cc1 [I-17(Z), (3R,4S)-3-[(Z)-4-acetoxy-3-(4-fluorophenyl)-but-2-enyl]-1-(4-fluorophenyl)-4-(4-methoxyphenyl)azetidin-2-one]
inhibition in vivo at 10 mg/kg [1]: 60.1% | inhibition in vivo at 10 mg/kg [2]: 59.8% | LDL-C after administration [3]: 1.19 | TC after administration [3]: 5.09 | LDL-C before administration [4]: 2.98 ± 0.72 | TC before administration [4]: 12.67 ± 1.28 | reduction of plasma TC and LDL-C levels (in words) [5]: can significantly reduce the plasma TC and LDL-C levels | effect of lowering cholesterol (screening result in words): have the effect of lowering cholesterol | efficacy compared with the positive control (in words): more similar to the positive control

Cc1ccc(C(=O)OC/C(=C\C[C@H]2C(=O)N(c3ccc(F)cc3)[C@@H]2c2ccc(O)cc2)c2ccc(F)cc2)cc1 [I-15(Z)]
inhibition in vivo at 1 mg/kg [6]: 46.5% | inhibition in vivo at 1 mg/kg [7]: 38.1% | inhibition in vivo at 3 mg/kg [6]: 70.4% | inhibition in vivo at 3 mg/kg [7]: 50.8% | LDL after administration (Table 7, 1 mg/kg intragastric): 1.99 mmol/L | TC after administration (Table 7, 1 mg/kg intragastric): 6.76 mmol/L | LDL after administration (Table 7, 3 mg/kg intragastric): 1.44 mmol/L | TC after administration (Table 7, 3 mg/kg intragastric): 5.37 mmol/L | reduction of plasma TC and LDL-C levels (in words) [5]: can significantly reduce the plasma TC and LDL-C levels | effect of lowering cholesterol (screening result in words): have the effect of lowering cholesterol | efficacy compared with the positive control (in words): more similar to the positive control

O=C(Oc1ccc([C@@H]2[C@@H](C/C=C(\CO)c3ccc(F)cc3)C(=O)N2c2ccc(F)cc2)cc1)c1ccccc1 [I-5(Z), (3R,4S)-4-(4-benzoyloxyphenyl)-1-(4-fluorophenyl)-3-[(Z)-3-(4-fluorophenyl)-4-hydroxy-but-2-enyl]azetidin-2-one]
inhibition in vivo at 1 mg/kg [8]: 30.7% | inhibition in vivo at 1 mg/kg [9]: 31.2% | inhibition in vivo at 10 mg/kg [8]: 68.1% | inhibition in vivo at 10 mg/kg [9]: 62.7% | LDL after administration (Table 9, 1 mg/kg intragastric): 2.18 mmol/L | TC after administration (Table 9, 1 mg/kg intragastric): 10.55 mmol/L | LDL after administration (Table 9, 10 mg/kg intragastric): 1.0 mmol/L | TC after administration (Table 9, 10 mg/kg intragastric): 5.73 mmol/L | reduction of plasma TC and LDL-C levels (in words) [5]: can significantly reduce the plasma TC and LDL-C levels | effect of lowering cholesterol (screening result in words): have the effect of lowering cholesterol

O=C(OC/C(=C\C[C@H]1C(=O)N(c2ccc(F)cc2)[C@@H]1c1ccc(O)cc1)c1ccc(F)cc1)c1ccccc1 [I-13(Z)]
inhibition in vivo at 1 mg/kg [10]: 58.1% | inhibition in vivo at 1 mg/kg [11]: 36.8% | inhibition in vivo at 10 mg/kg [10]: 68.8% | inhibition in vivo at 10 mg/kg [11]: 55.4% | LDL after administration (Table 5, 1 mg/kg intragastric): 1.98 mmol/L | TC after administration (Table 5, 1 mg/kg intragastric): 6.92 mmol/L | LDL after administration (Table 5, 10 mg/kg intragastric): 1.27 mmol/L | TC after administration (Table 5, 10 mg/kg intragastric): 4.81 mmol/L | reduction of plasma TC and LDL-C levels (in words) [5]: can significantly reduce the plasma TC and LDL-C levels | effect of lowering cholesterol (screening result in words): have the effect of lowering cholesterol

CC(=O)OC/C(=C\C[C@H]1C(=O)N(c2ccc(F)cc2)[C@@H]1c1ccc(OC(=O)c2ccccc2)cc1)c1ccc(F)cc1 [I-16(Z), (3R,4S)-3-[(Z)-4-acetoxy-3-(4-fluorophenyl)-but-2-enyl]-4-(4-benzoyloxyphenyl)-1-(4-fluorophenyl)azetidin-2-one]
inhibition in vivo at 1 mg/kg [8]: 31.7% | inhibition in vivo at 1 mg/kg [9]: 37.4% | inhibition in vivo at 10 mg/kg [8]: 65% | inhibition in vivo at 10 mg/kg [9]: 60.9% | LDL after administration (Table 9, 1 mg/kg intragastric): 2.15 mmol/L | TC after administration (Table 9, 1 mg/kg intragastric): 9.61 mmol/L | LDL after administration (Table 9, 10 mg/kg intragastric): 1.1 mmol/L | TC after administration (Table 9, 10 mg/kg intragastric): 6.0 mmol/L | reduction of plasma TC and LDL-C levels (in words) [5]: can significantly reduce the plasma TC and LDL-C levels | effect of lowering cholesterol (screening result in words): have the effect of lowering cholesterol

COc1ccc([C@@H]2[C@@H](C/C=C(\CO)c3ccc(F)cc3)C(=O)N2c2ccc(F)cc2)cc1 [I-2(Z)]
inhibition in vivo at 5 mg/kg [1]: 63.4% | inhibition in vivo at 5 mg/kg [2]: 62.2% | LDL-C after administration [3]: 1.01 | TC after administration [3]: 4.82 | LDL-C before administration [4]: 2.76 ± 0.43 | TC before administration [4]: 12.74 ± 1.32 | reduction of plasma TC and LDL-C levels (in words) [5]: can significantly reduce the plasma TC and LDL-C levels | effect of lowering cholesterol (screening result in words): have the effect of lowering cholesterol | efficacy compared with the positive control (in words): more similar to the positive control

CC(=O)Oc1ccc([C@@H]2[C@@H](C/C=C(\CO)c3ccc(F)cc3)C(=O)N2c2ccc(F)cc2)cc1 [I-6(Z), (3R,4S)-4-(4-acetoxyphenyl)-1-(4-fluorophenyl)-3-[(Z)-3-(4-fluorophenyl)-4-hydroxy-but-2-enyl]azetidin-2-one]
inhibition in vivo at 1 mg/kg [8]: 50.2% | inhibition in vivo at 1 mg/kg [9]: 51.5% | inhibition in vivo at 10 mg/kg [8]: 70.4% | inhibition in vivo at 10 mg/kg [9]: 65.6% | LDL after administration (Table 9, 1 mg/kg intragastric): 1.57 mmol/L | TC after administration (Table 9, 1 mg/kg intragastric): 7.45 mmol/L | LDL after administration (Table 9, 10 mg/kg intragastric): 0.93 mmol/L | TC after administration (Table 9, 10 mg/kg intragastric): 5.28 mmol/L | reduction of plasma TC and LDL-C levels (in words) [5]: can significantly reduce the plasma TC and LDL-C levels | effect of lowering cholesterol (screening result in words): have the effect of lowering cholesterol | efficacy compared with the positive control (in words): more similar to the positive control

O=C1[C@H](C/C=C(/CO)c2ccc(F)cc2)[C@@H](c2ccc(O)cc2)N1c1ccc(F)cc1 [I-1(E), (3R,4S)-1-(4-fluorophenyl)-3-[(E)-3-(4-fluorophenyl)-4-hydroxy-but-2-enyl]-4-(4-hydroxyphenyl)azetidin-2-one]
inhibition in vivo at 0.4 mg/kg [12]: -16.4% | inhibition in vivo at 0.4 mg/kg [13]: -26.1% | inhibition in vivo at 2 mg/kg [12]: 0% | inhibition in vivo at 2 mg/kg [13]: -20.9% | inhibition in vivo at 10 mg/kg [12]: 30.7% | inhibition in vivo at 10 mg/kg [13]: 11.7% | LDL-C after administration [14]: 2.84 ± 0.59 mmol/L | TC after administration [14]: 12.42 ± 1.4 mmol/L | LDL-C after administration (Table 1, 2 mg/kg intragastric): 2.21 ± 0.37 mmol/L | TC after administration (Table 1, 2 mg/kg intragastric): 11.19 ± 0.69 mmol/L | LDL-C after administration (Table 1, 10 mg/kg intragastric): 1.74 ± 0.62 mmol/L | TC after administration (Table 1, 10 mg/kg intragastric): 8.7 ± 0.93 mmol/L | LDL-C before administration (Table 1, baseline of group dosed 0.4 mg/kg): 2.44 ± 0.46 mmol/L | LDL-C before administration (Table 1, baseline of group dosed 2 mg/kg): 2.21 ± 0.47 mmol/L | LDL-C before administration (Table 1, baseline of group dosed 10 mg/kg): 2.51 ± 0.91 mmol/L | reduction of plasma TC and LDL-C relative to the amount reduced by Ezetimibe and I-1 (Z) [5]: less than 50% | reduction of plasma TC and LDL-C levels (in words) [5]: can also lower plasma TC and LDL-C levels | effect of lowering cholesterol (screening result in words): certain effect on cholesterol-lowering

CC(=O)OC/C(=C\C[C@H]1C(=O)N(c2ccc(F)cc2)[C@@H]1c1ccc(O)cc1)c1ccc(F)cc1 [I-12(Z), (3R,4S)-3-[(Z)-4-acetoxy-3-(4-fluorophenyl)-but-2-enyl]-1-(4-fluorophenyl)-4-(4-hydroxyphenyl)azetidin-2-one]
inhibition in vivo at 1 mg/kg [10]: 62.8% | inhibition in vivo at 1 mg/kg [11]: 50.9% | inhibition in vivo at 10 mg/kg [10]: 71.5% | inhibition in vivo at 10 mg/kg [11]: 54.8% | LDL after administration (Table 5, 1 mg/kg intragastric): 1.58 mmol/L | TC after administration (Table 5, 1 mg/kg intragastric): 5.29 mmol/L | LDL after administration (Table 5, 10 mg/kg intragastric): 1.34 mmol/L | TC after administration (Table 5, 10 mg/kg intragastric): 4.86 mmol/L | reduction of plasma TC and LDL-C levels (in words) [5]: can significantly reduce the plasma TC and LDL-C levels | effect of lowering cholesterol (screening result in words): have the effect of lowering cholesterol

— patent US8623855B2, “Azetidinone compounds and medical use thereof” (Zhejiang Hisun Pharmaceutical Co., Ltd., priority 2009, dated 2014)
